ChEMBL document CHEMBL5131430, “Free radical scavenging activities of verbascoside and isoverbascoside from the leaves of Odontonema strictum (Acanthaceae)” (Bioorg Med Chem Lett, 2022)
Converted amounts (≈) assume the structure as drawn.

Tests used:
[1] = Antioxidant activity assessed as DPPH radical scavenging activity; assay type: functional
[2] = Antioxidant activity assessed as hydrogen peroxide scavenging activity; assay type: functional

| IC50 [1] [µg/mL] | IC50 [2] [µg/mL] | SMILES |
| --- | --- | --- |
| 0.09 (≈ 0.144 µM) | 2.6 (≈ 4.16 µM) | C[C@@H]1O[C@@H](O[C@@H]2[C@@H](O)[C@H](OCCc3ccc(O)c(O)c3)O[C@H](CO)[C@H]2OC(=O)/C=C/c2ccc(O)c(O)c2)[C@H](O)[C@H](O)[C@H]1O [ACETOSIDE] |
| 0.05 (≈ 0.284 µM) | 4.1 (≈ 23.3 µM) | O=C1O[C@H]([C@@H](O)CO)C(O)=C1O [ASCORBIC ACID] |
| 0.16 (≈ 0.256 µM) | 3 (≈ 4.8 µM) | C[C@@H]1O[C@@H](O[C@@H]2[C@@H](O)[C@H](OCCc3ccc(O)c(O)c3)O[C@H](COC(=O)/C=C/c3ccc(O)c(O)c3)[C@H]2O)[C@H](O)[C@H](O)[C@H]1O [ISOACTEOSIDE] |
